Reference: PMC12670405, “Second-Generation AURKA-Targeting PROTACs: Structural Optimization toward in Vivo Degradation in Neuroblastoma” (Journal of Medicinal Chemistry, 2025)

Experiments:
Assay in all cases: KINOMEscan scanMAX
Format in all cases: binding
Settings in all cases: read-out: Percent Control
[1] = biological target: T1, KIT(V559D,T670I) (Homo sapiens, UniProt P10721, T670I/V559D)
T1 construct: purchased Eurofins Discovery (DiscoverX KINOMEscan scanMAX)
Procedure: (§1) The kinome-wide binding assay was performed by Eurofins Discovery using the scanMAX screening platform. More information can be found on the Eurofins Discovery Web site.

[2] = biological target: T2, BRK (Homo sapiens, UniProt Q13882)
T2 construct: purchased Eurofins Discovery (DiscoverX KINOMEscan scanMAX)
Procedure: as §1

[3] = biological target: T3, RIPK2 (Homo sapiens, UniProt O43353)
T3 construct: purchased Eurofins Discovery (DiscoverX KINOMEscan scanMAX)
Procedure: as §1

[4] = biological target: T4, CDC2L2 (Homo sapiens, UniProt Q9UQ88)
T4 construct: purchased Eurofins Discovery (DiscoverX KINOMEscan scanMAX)
Procedure: as §1

[5] = biological target: T5, VRK2 (Homo sapiens, UniProt Q86Y07)
T5 construct: purchased Eurofins Discovery (DiscoverX KINOMEscan scanMAX)
Procedure: as §1

[6] = biological target: T6, DCAMKL1 (Homo sapiens, UniProt O15075)
T6 construct: purchased Eurofins Discovery (DiscoverX KINOMEscan scanMAX)
T6 sequence (O15075 whole entry): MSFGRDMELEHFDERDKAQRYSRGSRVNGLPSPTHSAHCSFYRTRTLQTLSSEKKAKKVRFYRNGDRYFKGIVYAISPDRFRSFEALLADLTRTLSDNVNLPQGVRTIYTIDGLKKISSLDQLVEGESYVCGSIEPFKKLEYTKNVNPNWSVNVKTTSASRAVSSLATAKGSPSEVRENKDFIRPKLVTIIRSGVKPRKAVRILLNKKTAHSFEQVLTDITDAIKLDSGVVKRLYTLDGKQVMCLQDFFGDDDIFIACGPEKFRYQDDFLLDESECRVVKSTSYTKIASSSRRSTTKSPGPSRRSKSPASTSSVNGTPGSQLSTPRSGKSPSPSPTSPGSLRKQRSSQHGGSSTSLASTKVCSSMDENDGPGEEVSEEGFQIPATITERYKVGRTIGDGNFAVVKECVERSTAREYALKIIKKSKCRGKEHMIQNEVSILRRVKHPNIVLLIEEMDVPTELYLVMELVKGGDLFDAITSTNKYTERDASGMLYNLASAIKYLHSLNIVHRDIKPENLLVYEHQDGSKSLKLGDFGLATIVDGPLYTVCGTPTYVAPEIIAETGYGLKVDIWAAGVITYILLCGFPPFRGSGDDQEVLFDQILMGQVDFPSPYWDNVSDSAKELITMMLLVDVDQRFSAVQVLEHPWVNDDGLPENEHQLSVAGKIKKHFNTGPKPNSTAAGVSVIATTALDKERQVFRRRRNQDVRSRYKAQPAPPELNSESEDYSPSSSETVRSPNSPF
Procedure: as §1

[7] = biological target: T7, CSNK1A1 (Homo sapiens, UniProt P48729)
T7 construct: purchased Eurofins Discovery (DiscoverX KINOMEscan scanMAX)
Procedure: as §1

[8] = biological target: T8, RPS6KA4(Kin.Dom.1-N-terminal) (Homo sapiens, UniProt O75676)
T8 construct: RPS6KA4(Kin.Dom.1-N-terminal); purchased Eurofins Discovery (DiscoverX KINOMEscan scanMAX)
T8 sequence (O75676 1-371 limits assumed): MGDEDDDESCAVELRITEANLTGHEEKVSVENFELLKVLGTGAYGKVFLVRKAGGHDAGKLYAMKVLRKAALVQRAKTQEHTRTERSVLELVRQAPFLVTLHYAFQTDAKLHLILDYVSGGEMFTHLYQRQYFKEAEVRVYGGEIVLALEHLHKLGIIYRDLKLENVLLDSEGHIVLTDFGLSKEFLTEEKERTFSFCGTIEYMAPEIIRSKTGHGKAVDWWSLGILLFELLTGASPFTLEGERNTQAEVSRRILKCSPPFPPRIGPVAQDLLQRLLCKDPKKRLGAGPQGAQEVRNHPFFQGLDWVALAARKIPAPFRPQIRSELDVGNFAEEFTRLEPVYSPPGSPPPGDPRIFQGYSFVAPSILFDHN
Procedure: as §1

[9] = biological target: T9, EGFR(G719C) (Homo sapiens, UniProt P00533, G719C)
T9 construct: purchased Eurofins Discovery (DiscoverX KINOMEscan scanMAX)
Procedure: as §1

[10] = biological target: T10, RAF1 (Homo sapiens, UniProt P04049)
T10 construct: purchased Eurofins Discovery (DiscoverX KINOMEscan scanMAX)
Procedure: as §1

[11] = biological target: T11, NDR1 (Homo sapiens, UniProt Q15208)
T11 construct: purchased Eurofins Discovery (DiscoverX KINOMEscan scanMAX)
Procedure: as §1

[12] = biological target: T12, ERN1 (Homo sapiens, UniProt O75460)
T12 construct: purchased Eurofins Discovery (DiscoverX KINOMEscan scanMAX)
Procedure: as §1

[13] = biological target: T13, ACVR1 (Homo sapiens, UniProt Q04771)
T13 construct: purchased Eurofins Discovery (DiscoverX KINOMEscan scanMAX)
Procedure: as §1

[14] = biological target: T14, ACVR2B (Homo sapiens, UniProt Q13705)
T14 construct: purchased Eurofins Discovery (DiscoverX KINOMEscan scanMAX)
T14 sequence (Q13705 19-512): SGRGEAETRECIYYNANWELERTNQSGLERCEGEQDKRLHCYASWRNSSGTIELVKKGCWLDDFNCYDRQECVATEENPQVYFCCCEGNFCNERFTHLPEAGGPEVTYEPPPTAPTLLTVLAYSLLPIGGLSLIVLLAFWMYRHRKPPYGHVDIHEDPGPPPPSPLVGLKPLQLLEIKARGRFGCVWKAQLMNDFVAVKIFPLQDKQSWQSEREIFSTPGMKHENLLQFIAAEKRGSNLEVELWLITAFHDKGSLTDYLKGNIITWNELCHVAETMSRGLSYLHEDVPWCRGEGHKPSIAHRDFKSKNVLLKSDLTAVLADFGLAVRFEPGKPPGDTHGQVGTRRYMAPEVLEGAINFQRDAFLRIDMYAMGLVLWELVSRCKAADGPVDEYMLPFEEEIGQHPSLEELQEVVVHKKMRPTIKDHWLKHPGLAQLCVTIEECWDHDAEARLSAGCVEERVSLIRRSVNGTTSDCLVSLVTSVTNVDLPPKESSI
Procedure: as §1

[15] = biological target: T15, CDK9 (Homo sapiens, UniProt P50750)
T15 construct: purchased Eurofins Discovery (DiscoverX KINOMEscan scanMAX)
Procedure: as §1

[16] = biological target: T16, FLT3-autoinhibited (Homo sapiens, UniProt P36888)
T16 construct: purchased Eurofins Discovery (DiscoverX KINOMEscan scanMAX)
Procedure: as §1

[17] = biological target: T17, CSNK2A1 (Homo sapiens, UniProt P68400)
T17 construct: purchased Eurofins Discovery (DiscoverX KINOMEscan scanMAX)
Procedure: as §1

[18] = biological target: T18, ALK(C1156Y) (Homo sapiens, UniProt Q9UM73, C1156Y)
T18 construct: purchased Eurofins Discovery (DiscoverX KINOMEscan scanMAX)
Procedure: as §1

[19] = biological target: T19, MYLK (Homo sapiens, UniProt Q15746)
T19 construct: purchased Eurofins Discovery (DiscoverX KINOMEscan scanMAX)
Procedure: as §1

[20] = biological target: T20, PIK3CA(C420R) (Homo sapiens, UniProt P42336, C420R)
T20 construct: purchased Eurofins Discovery (DiscoverX KINOMEscan scanMAX)
Procedure: as §1

[21] = biological target: T21, FLT3(R834Q) (Homo sapiens, UniProt P36888, R834Q)
T21 construct: purchased Eurofins Discovery (DiscoverX KINOMEscan scanMAX)
Procedure: as §1

[22] = biological target: T22, MEK6 (Homo sapiens, UniProt P52564)
T22 construct: purchased Eurofins Discovery (DiscoverX KINOMEscan scanMAX)
Procedure: as §1

[23] = biological target: T23, ABL1(F317L)-nonphosphorylated (Homo sapiens, UniProt P00519, F317L)
T23 construct: purchased Eurofins Discovery (DiscoverX KINOMEscan scanMAX)
Procedure: as §1

[24] = biological target: T24, PIP5K1C (Homo sapiens, UniProt O60331)
T24 construct: purchased Eurofins Discovery (DiscoverX KINOMEscan scanMAX)
Procedure: as §1

[25] = biological target: T25, MAPKAPK5 (Homo sapiens, UniProt Q8IW41)
T25 construct: purchased Eurofins Discovery (DiscoverX KINOMEscan scanMAX)
T25 sequence (Q8IW41 whole entry): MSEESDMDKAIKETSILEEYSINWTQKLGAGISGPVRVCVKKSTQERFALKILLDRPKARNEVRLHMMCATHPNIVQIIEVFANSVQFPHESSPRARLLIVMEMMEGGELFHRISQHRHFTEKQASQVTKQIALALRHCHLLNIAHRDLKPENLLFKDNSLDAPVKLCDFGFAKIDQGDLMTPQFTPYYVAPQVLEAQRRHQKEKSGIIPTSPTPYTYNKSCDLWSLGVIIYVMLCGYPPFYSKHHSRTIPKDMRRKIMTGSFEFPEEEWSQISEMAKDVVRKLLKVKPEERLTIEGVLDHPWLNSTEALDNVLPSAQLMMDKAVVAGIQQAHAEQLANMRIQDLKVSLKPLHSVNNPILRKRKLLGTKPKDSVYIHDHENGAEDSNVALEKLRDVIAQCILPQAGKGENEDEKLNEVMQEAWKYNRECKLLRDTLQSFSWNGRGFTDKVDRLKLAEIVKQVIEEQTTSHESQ
Procedure: as §1

[26] = biological target: T26, BRAF(V600E) (Homo sapiens, UniProt P15056, V600E)
T26 construct: purchased Eurofins Discovery (DiscoverX KINOMEscan scanMAX)
Procedure: as §1

[27] = biological target: T27, PYK2 (Homo sapiens, UniProt Q14289)
T27 construct: purchased Eurofins Discovery (DiscoverX KINOMEscan scanMAX)
T27 sequence (Q14289 whole entry): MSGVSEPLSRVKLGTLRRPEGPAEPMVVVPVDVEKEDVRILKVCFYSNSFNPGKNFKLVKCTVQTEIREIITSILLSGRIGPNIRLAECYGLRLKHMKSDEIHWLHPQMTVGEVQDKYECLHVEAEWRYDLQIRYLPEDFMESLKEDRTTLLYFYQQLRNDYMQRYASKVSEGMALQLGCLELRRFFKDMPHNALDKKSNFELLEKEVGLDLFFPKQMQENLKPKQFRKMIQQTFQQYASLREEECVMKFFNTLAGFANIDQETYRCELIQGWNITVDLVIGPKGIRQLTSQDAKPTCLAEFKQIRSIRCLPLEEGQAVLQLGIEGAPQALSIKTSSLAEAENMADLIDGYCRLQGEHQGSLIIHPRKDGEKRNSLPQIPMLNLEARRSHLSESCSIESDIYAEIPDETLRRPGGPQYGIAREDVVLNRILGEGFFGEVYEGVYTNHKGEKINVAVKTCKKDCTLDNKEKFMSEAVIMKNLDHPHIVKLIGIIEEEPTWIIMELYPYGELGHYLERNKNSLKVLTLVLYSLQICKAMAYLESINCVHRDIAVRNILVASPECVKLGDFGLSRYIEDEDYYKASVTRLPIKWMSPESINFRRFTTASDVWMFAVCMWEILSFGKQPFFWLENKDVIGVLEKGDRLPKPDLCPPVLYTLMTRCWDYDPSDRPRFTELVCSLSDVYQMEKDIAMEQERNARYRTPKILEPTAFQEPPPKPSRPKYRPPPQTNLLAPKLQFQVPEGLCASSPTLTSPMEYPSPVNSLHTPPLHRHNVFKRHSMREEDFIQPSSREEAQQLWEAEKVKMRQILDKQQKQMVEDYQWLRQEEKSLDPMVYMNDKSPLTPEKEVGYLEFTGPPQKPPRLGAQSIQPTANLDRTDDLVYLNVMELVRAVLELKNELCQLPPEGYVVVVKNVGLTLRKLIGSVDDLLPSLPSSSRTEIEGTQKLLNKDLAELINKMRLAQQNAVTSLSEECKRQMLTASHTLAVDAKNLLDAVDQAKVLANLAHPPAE
Procedure: as §1

[28] = biological target: T28, HASPIN (Homo sapiens, UniProt Q8TF76)
T28 construct: purchased Eurofins Discovery (DiscoverX KINOMEscan scanMAX)
Procedure: as §1

[29] = biological target: T29, YES (Homo sapiens, UniProt P07947)
T29 construct: purchased Eurofins Discovery (DiscoverX KINOMEscan scanMAX)
Procedure: as §1

[30] = biological target: T30, PIKFYVE (Homo sapiens, UniProt Q9Y2I7)
T30 construct: purchased Eurofins Discovery (DiscoverX KINOMEscan scanMAX)
Procedure: as §1

[31] = biological target: T31, ERK2 (Homo sapiens, UniProt P28482)
T31 construct: purchased Eurofins Discovery (DiscoverX KINOMEscan scanMAX)
Procedure: as §1

[32] = biological target: T32, TBK1 (Homo sapiens, UniProt Q9UHD2)
T32 construct: purchased Eurofins Discovery (DiscoverX KINOMEscan scanMAX)
T32 sequence (Q9UHD2 whole entry): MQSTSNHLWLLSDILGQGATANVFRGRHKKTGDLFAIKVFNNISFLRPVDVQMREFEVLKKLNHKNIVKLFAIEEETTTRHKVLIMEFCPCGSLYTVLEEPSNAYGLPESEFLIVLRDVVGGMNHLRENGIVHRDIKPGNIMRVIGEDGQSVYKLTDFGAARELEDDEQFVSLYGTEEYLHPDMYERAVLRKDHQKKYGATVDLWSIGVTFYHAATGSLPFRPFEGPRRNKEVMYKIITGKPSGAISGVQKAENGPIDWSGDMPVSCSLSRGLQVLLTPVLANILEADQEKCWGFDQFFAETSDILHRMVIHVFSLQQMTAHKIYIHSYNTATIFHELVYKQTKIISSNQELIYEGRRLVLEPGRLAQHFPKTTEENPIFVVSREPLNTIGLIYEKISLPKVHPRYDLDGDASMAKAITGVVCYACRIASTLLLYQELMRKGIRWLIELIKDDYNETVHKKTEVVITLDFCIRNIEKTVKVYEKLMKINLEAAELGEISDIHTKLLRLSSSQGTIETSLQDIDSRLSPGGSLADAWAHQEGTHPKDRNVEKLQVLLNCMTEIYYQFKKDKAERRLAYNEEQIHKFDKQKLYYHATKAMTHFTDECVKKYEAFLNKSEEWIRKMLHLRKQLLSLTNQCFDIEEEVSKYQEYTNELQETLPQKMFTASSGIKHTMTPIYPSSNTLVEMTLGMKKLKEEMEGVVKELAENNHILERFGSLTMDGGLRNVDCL
Procedure: as §1

[33] = biological target: T33, TNK2 (Homo sapiens, UniProt Q07912)
T33 construct: purchased Eurofins Discovery (DiscoverX KINOMEscan scanMAX)
Procedure: as §1

T1 sequence (P10721 26-976 V559D/T670I): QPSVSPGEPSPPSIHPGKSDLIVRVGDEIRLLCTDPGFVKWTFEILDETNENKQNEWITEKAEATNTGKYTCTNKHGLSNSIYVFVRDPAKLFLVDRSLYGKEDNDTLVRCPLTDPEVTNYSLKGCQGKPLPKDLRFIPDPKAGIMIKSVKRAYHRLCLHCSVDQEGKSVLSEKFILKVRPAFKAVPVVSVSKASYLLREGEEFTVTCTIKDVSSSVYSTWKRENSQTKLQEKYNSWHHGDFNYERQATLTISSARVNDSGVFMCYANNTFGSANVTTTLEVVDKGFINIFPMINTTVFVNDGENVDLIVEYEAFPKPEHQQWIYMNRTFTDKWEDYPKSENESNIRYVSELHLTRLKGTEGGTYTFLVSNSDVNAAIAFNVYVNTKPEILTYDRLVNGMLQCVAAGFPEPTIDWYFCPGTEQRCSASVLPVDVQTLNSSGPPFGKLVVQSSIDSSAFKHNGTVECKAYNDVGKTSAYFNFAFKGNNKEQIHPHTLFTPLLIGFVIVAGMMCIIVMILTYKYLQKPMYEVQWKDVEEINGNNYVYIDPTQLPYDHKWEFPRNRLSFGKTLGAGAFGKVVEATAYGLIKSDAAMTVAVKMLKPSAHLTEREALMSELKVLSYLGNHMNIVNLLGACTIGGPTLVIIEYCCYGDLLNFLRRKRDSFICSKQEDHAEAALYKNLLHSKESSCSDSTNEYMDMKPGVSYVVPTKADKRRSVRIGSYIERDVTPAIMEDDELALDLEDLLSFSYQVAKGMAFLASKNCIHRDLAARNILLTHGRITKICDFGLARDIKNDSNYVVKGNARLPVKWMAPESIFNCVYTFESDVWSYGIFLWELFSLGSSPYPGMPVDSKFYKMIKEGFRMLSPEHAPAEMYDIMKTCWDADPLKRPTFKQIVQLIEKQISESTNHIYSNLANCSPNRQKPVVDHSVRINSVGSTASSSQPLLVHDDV

What does the source list for `Cc1cc(Nc2ccc(F)c(CC3(C(=O)N4CCC(F)(CN5CCN(c6ccc(N7CCC(=O)NC7=O)cn6)CC5)CC4)CCN(Cc4cccc(Cl)c4F)CC3)n2)n[nH]1` [SK5527]?
remaining binding at 0.1 µM ([1]; 100 nM): 100%; remaining binding at 1 µM ([1]; 1000 nM): 89%; remaining binding at 0.1 µM ([2]; 100 nM): 92%; remaining binding at 1 µM ([2]; 1000 nM): 88%; remaining binding at 0.1 µM ([3]; 100 nM): 80%; remaining binding at 1 µM ([3]; 1000 nM): 88%; remaining binding at 0.1 µM ([4]; 100 nM): 99%; remaining binding at 1 µM ([4]; 1000 nM): 98%; remaining binding at 0.1 µM ([5]; 100 nM): 82%; remaining binding at 1 µM ([5]; 1000 nM): 77%; remaining binding at 0.1 µM ([6]; 100 nM): 100%; remaining binding at 1 µM ([6]; 1000 nM): 88%; remaining binding at 0.1 µM ([7]; 100 nM): 100%; remaining binding at 1 µM ([7]; 1000 nM): 100%; remaining binding at 0.1 µM ([8]; 100 nM): 90%; remaining binding at 1 µM ([8]; 1000 nM): 95%; remaining binding at 0.1 µM ([9]; 100 nM): 87%; remaining binding at 1 µM ([9]; 1000 nM): 94%; remaining binding at 0.1 µM ([10]; 100 nM): 100%; remaining binding at 1 µM ([10]; 1000 nM): 100%; remaining binding at 0.1 µM ([11]; 100 nM): 98%; remaining binding at 1 µM ([11]; 1000 nM): 82%; remaining binding at 0.1 µM ([12]; 100 nM): 100%; remaining binding at 1 µM ([12]; 1000 nM): 100%; remaining binding at 0.1 µM ([13]; 100 nM): 68%; remaining binding at 1 µM ([13]; 1000 nM): 70%; remaining binding at 0.1 µM ([14]; 100 nM): 100%; remaining binding at 1 µM ([14]; 1000 nM): 87%; remaining binding at 0.1 µM ([15]; 100 nM): 90%; remaining binding at 1 µM ([15]; 1000 nM): 97%; remaining binding at 0.1 µM ([16]; 100 nM): 96%; remaining binding at 1 µM ([16]; 1000 nM): 68%; remaining binding at 0.1 µM ([17]; 100 nM): 90%; remaining binding at 1 µM ([17]; 1000 nM): 69%; remaining binding at 0.1 µM ([18]; 100 nM): 87%; remaining binding at 1 µM ([18]; 1000 nM): 100%; remaining binding at 0.1 µM ([19]; 100 nM): 76%; remaining binding at 1 µM ([19]; 1000 nM): 47%; remaining binding at 0.1 µM ([20]; 100 nM): 63%; remaining binding at 1 µM ([20]; 1000 nM): 100%; remaining binding at 0.1 µM ([21]; 100 nM): 86%; remaining binding at 1 µM ([21]; 1000 nM): 75%; remaining binding at 0.1 µM ([22]; 100 nM): 100%; remaining binding at 1 µM ([22]; 1000 nM): 94%; remaining binding at 0.1 µM ([23]; 100 nM): 97%; remaining binding at 1 µM ([23]; 1000 nM): 49%; remaining binding at 0.1 µM ([24]; 100 nM): 100%; remaining binding at 1 µM ([24]; 1000 nM): 94%; remaining binding at 0.1 µM ([25]; 100 nM): 85%; remaining binding at 1 µM ([25]; 1000 nM): 74%; remaining binding at 0.1 µM ([26]; 100 nM): 100%; remaining binding at 1 µM ([26]; 1000 nM): 100%; remaining binding at 0.1 µM ([27]; 100 nM): 91%; remaining binding at 1 µM ([27]; 1000 nM): 66%; remaining binding at 0.1 µM ([28]; 100 nM): 79%; remaining binding at 1 µM ([28]; 1000 nM): 70%; remaining binding at 0.1 µM ([29]; 100 nM): 73%; remaining binding at 1 µM ([29]; 1000 nM): 70%; remaining binding at 0.1 µM ([30]; 100 nM): 100%; remaining binding at 1 µM ([30]; 1000 nM): 100%; remaining binding at 0.1 µM ([31]; 100 nM): 100%; remaining binding at 1 µM ([31]; 1000 nM): 97%; remaining binding at 0.1 µM ([32]; 100 nM): 99%; remaining binding at 1 µM ([32]; 1000 nM): 85%; remaining binding at 0.1 µM ([33]; 100 nM): 62%; remaining binding at 1 µM ([33]; 1000 nM): 25%
